Assays:
B16F10 cells = test: CCK-8 cell viability / cytotoxicity test; format: cell-based, murine; conditions: Mus musculus, B16-F10, DOX concentration, 24 hours, read-out: half-maximal inhibitory concentration (IC50)
Description: Cells (B16F10 and RAW 264.7 cell line) were grown in DMEM containing 10% FBS at 37° C. with 5% CO2. B16F10 and RAW 264.7 cells were seeded on the 96 well tissue culture plates (1×10^4 per well) and cultured for 24 hours. To confirm the biosafety of ASL and AEx, the cells were treated with various concentrations of ASL and AEx and incubated for 24 hours. For the cytotoxicity test, B16F10 cells were given the various concentrations of dAEx, dEx, DOX. In addition to the further competition test, B16F10 cells were incubated with the cyclic RGD (2 μM) for 2 hours and treated with the various concentrations of dAEx. After 24 hours of the treatment, to investigate the cell survival, cells were washed using the fresh PBS twice, and 10% CCK-8 containing DMEM was added to each well and incubated for 1 hour. The absorbance was measured using a microplate reader at 450 nm.

[1] = tested on: cleaved caspase-3 and cleaved PARP of B16F10 cells; test: Apoptotic activity: cleaved caspase-3 and cleaved PARP by ELISA and western blot; format: cell-based, murine; conditions: DOX 5 μM, 24 hours
Description: B16F10 cells were seeded in a 100 mm cell culture dish with cell density at 4.4×10^6 and incubated for 24 hours. After the treatment of various agents with a fixed concentration of DOX (5 μM) for 24 hours, proteins were collected using a cell lysis buffer on ice. Proteins were separated by electrophoresis and transferred to PVDF membranes. Cleaved caspase-3, cleaved PARP, and β-actin (Cell Signaling Technology, Danvers, MA, USA) were used as primary antibodies, and IRDye secondary antibodies (LI-COR Biosciences, Lincoln, NE, USA) were used as secondary antibodies. The protein bands were imaged using the Odyssey CLx (LI-COR Biosciences, Lincoln, NE, USA). The apoptotic activities of dAEx were evaluated by measuring the level of cleaved caspase-3, and cleaved PARP in the protein samples with a cleaved PARP (Cell Signaling Technology, Danvers, MA, USA) and a cleaved caspase-3 (R&D systems, Minneapolis, MN, USA) ELISA kit according to manufacturer's protocol.

B16F10 tumor = test: B16F10 murine tumor model, therapeutic efficacy; format: in vivo, mice; conditions: IV every three days, DOX 5 mg/kg (ASL 2.5 mg/kg), vs untreated control
Description: B16F10 cells (1×10^6) were directly injected into the flank of 6 weeks old mice. The mice were randomly grouped by six in each and observed until the cancer volume reached ˜50 mm^3. […] The tumor volume was calculated based on the formula: (width^2×length)/2. On day 18, the mice were sacrificed, and organs were harvested for histological analysis. H&E and TUNEL staining were performed using the paraffin-embedded tissues.

## COc1cccc2c1C(=O)c1c(O)c3c(c(O)c1C2=O)C[C@@](O)(C(=O)CO)C[C@@H]3O[C@H]1C[C@H](N)[C@H](O)[C@H](C)O1 [DOX, Doxorubicin]
B16F10 cells
  IC50: 9.85 ± 1.06 µM
[1]
  expression of cleaved caspase-3 and cleaved PARP: slight activation
B16F10 tumor
  tumor growth (tumor volume): did not significantly inhibit tumor growth

Source: US20250289878A1, “SURFACE-MODIFIED EXOSOMES AND METHODS OF USE” (The Board of Regents of the University of Oklahoma, priority 2021, published 2025)
